Measured values as given in patent US20080160001A1, “Antihypercholesterolemic Formulation with Less Side-Effects” (PFICKER PHARMACEUTICALS LTD., priority 2005, published 2008).
Each block holds one compound with its values, some of them ahead of it.

Key:
[1] = Experiment on stability of simvastatin; type: physicochemical; conditions: under pH of 5-7
[2] = system: patients (clinical cases); test: Summary of clinical cases; conditions: patient, simvastatin 20 mg; for blood ammonia: before test 72; for cholesterol in the blood: before test 249; for concentration of cholesterol in the blood: before 249
[3] = in vivo; cited from earlier work
patients [4] = conditions: cited from earlier work
[5] = cited from earlier work
patients [6] = conditions: patient with abnormal heart function, 40 mg alone, within 6 months, from 0.70; cited from earlier work

stability of simvastatin solid [1]: good stability | blood ammonia ([2]; 5 weeks): 84 µg/L | blood ammonia ([2]; 10 weeks): 69 µg/L | blood ammonia ([2]; 15 weeks): 77 µg/L | blood ammonia ([2]; 20 weeks): 108 µg/L | blood ammonia ([2]; 25 weeks): 89 µg/L | blood ammonia ([2]; 30 weeks): 93 µg/L | blood ammonia ([2]; 35 weeks): 162 µg/L | concentration of blood ammonia ([2]; after 6 months, before 72): 162 ng/mL
Compound: CCC(C)(C)C(=O)O[C@H]1C[C@@H](C)C=C2C=C[C@H](C)[C@H](CC[C@@H]3C[C@@H](O)CC(=O)O3)[C@H]21 [simvastatin]
ejection fraction ([2]; 5 weeks, before test 0.59): 0.62 | cholesterol in the blood ([2]; 5 weeks): 202 mg/L | ejection fraction ([2]; 10 weeks, before test 0.59): 0.60 | cholesterol in the blood ([2]; 10 weeks): 198 mg/L | ejection fraction ([2]; 15 weeks, before test 0.59): 0.63 | cholesterol in the blood ([2]; 15 weeks): 194 mg/L | ejection fraction ([2]; 20 weeks, before test 0.59): 0.58 | cholesterol in the blood ([2]; 20 weeks): 197 mg/L | ejection fraction ([2]; 25 weeks, before test 0.59): 0.62 | cholesterol in the blood ([2]; 25 weeks): 192 mg/L | ejection fraction ([2]; 30 weeks, before test 0.59): 0.61 | cholesterol in the blood ([2]; 30 weeks): 194 mg/L | ejection fraction ([2]; 35 weeks, before test 0.59): 0.61 | cholesterol in the blood ([2]; 35 weeks): 189 mg/L | ejection fraction ([2]; after 6 months, before 0.59): 0.61 | concentration of cholesterol in the blood ([2]; after 6 months): 189 mg/L | concentration of cholesterol in the blood ([2]; after one month): 202 mg/L

Compound: C[N+](C)(C)C[C@H](O)CC(=O)[O-] [L-Carnitine]
amount at which no toxic and side effect is found [3]: 500 mg/kg body weight/day

Compound: COC1=C(OC)C(=O)C(C/C=C(\C)CC/C=C(\C)CC/C=C(\C)CC/C=C(\C)CC/C=C(\C)CC/C=C(\C)CC/C=C(\C)CC/C=C(\C)CC/C=C(\C)CCC=C(C)C)=C(C)C1=O [coenzyme Q10]
outcome of patients close to death due to heart failure (patients [4]; 19 patients): becoming better | patients with three-year persistence (patients [4]; added to traditional therapy for heart diseases, traditional therapy 25%): 75% | amount at which no toxic and side effect is found [3]: 100 mg/kg body weight/day | solubility in an aqueous medium [5]: very low

Compound: Vitamin E
amount at which no toxic and side effect is found [3]: 500 mg/day

Compound: CC[C@H](C)C(=O)O[C@H]1C[C@@H](C)C=C2C=C[C@H](C)[C@H](CC[C@@H]3C[C@@H](O)CC(=O)O3)[C@H]21 [lovastatin]
ejection fraction of heart (patients [6]): 0.54

Compound: silymarin
amount at which no toxic and side effect is found [3]: 200 mg/kg body weight/day

Compound: O=C(O)CCCCC1CCSS1 (centres unmarked) [lipoic acid]
amount at which no toxic and side effect is found [3]: 300 mg/day
